Test results as given in paper PMC8279492, “Quinolinonyl Non-Diketo Acid Derivatives as Inhibitors of HIV-1 Ribonuclease H and Polymerase Functions of Reverse Transcriptase” (Journal of Medicinal Chemistry, 2021).
Where two headings read alike, the source gives them in different places.

Key:
[1] = molecular target: T1, HIV-1 RT-associated RNase H activity (Human immunodeficiency virus type 1 group M subtype B, UniProt P03366); experiment: biochemical; assay type: biochemical
T1 construct: His-tagged p66/p51 HIV-1 RT group M subtype B; His; made in house; host or cells: Escherichia coli M15
Description: (11) and β-thujaplicinol (BTP) used as positive controls.
(§1) His-tagged p66/p51 HIV-1 RT group M subtype B coded in a p6HRT-prot plasmid was expressed in the Escherichia coli strain M15.[65] Heterodimeric RTs were expressed essentially and purified as described.[66]
(§2) The HIV-1 RT-associated RNase H activity was measured as described.[68] Briefly, the reaction was carried out in a black 96-well plate in a total volume of 100 μL. […] Experiments were performed in duplicate and replicated at least two times. Data were analyzed as described.[36]

HIV-1 replication = HIV-1 replication in HeLa-CD4-LTR-β-gal reporter cells; assay type: cell-based
Description: (§3) HIV-1 replication was monitored using HeLa-CD4-LTR-β-gal reporter cells as previously described.[69] Briefly, β-galactosidase activity was monitored 24 h post infection using a replication-competent HIV produced in-house (H9-laï coculture) and a serial dilution of molecules or an equivalent volume of DMSO. In parallel, compounds’ toxicity was determined at 24 h in the same cell line using CellTiter 96 AQueous One Solution Cell Proliferation Assay (Promega, France).

HIV-1 IN = HIV-1 IN (Human immunodeficiency virus type 1 group M subtype B, UniProt P12497); experiment: biochemical
Description: His-tagged NL4-3 IN was expressed from a pET15b plasmid in the E. coli BL21 pLys strain. Recombinant protein was purified as previously described[67] following a batch preparation on Ni-NTA beads (Qiagen, Paris, France).
Both oligonucleotides were purchased from Integrated DNA Technologies, Inc. (Coralville, IA), and the gel was purified in-house. ST reactions were performed by adding molecules or an equivalent volume of 100% dimethyl sulfoxide (DMSO, used as the drug solvent) to a mixture of 20 nM duplex DNA substrate and 400 nM IN in 50 mM MOPS pH 7.2, 7.5 mM MgCl2, and 14 mM 2-mercaptoethanol. Mixtures were incubated at 37 °C for 2 h, and the reaction was quenched by addition of an equal volume of loading buffer [formamide containing 1% sodium dodecyl sulfate (SDS), 0.25% bromophenol blue, and xylene cyanol]. […] Dried gels were visualized using a FLA5000 (Fuji Photo Film, Tokyo, Japan). Densitometric analyses were performed using ImageQuant 5.1 software from GE Healthcare.

HIV-1 RT-RDDP activity = molecular target: T2, HIV-1 RT-RDDP activity (Human immunodeficiency virus type 1 group M subtype B, UniProt P03366); experiment: Polymerase assay (RNA-dependent DNA polymerase); assay type: biochemical
T2 construct: His-tagged p66/p51 HIV-1 RT group M subtype B; His; made in house; host or cells: Escherichia coli M15
Description: as §1
The HIV-1 RT-associated RNA-dependent DNA polymerase activity was measured as described.[65] Briefly, the reaction was carried out in a black 96-well plate in a total volume of 25 μL. Serial dilutions of compounds were added to the reaction mix containing 60 mM Tris HCl buffer pH 8.1, 8 mM MgCl2, 60 mM KCl, 13 mM DTT, 2.5 mM poly(A)-oligo(dT), and […].

[2] = Compounds' toxicity, CellTiter 96 AQueous One Solution Cell Proliferation Assay; assay type: cell-based; details: human
Description: as §3

W535A HIV-1 RT RNase H = molecular target: T3, W535A HIV-1 RT RNase H (Human immunodeficiency virus type 1 group M subtype B, UniProt P03366, W1134A); experiment: RNase H assay, point-mutant W535A RT; assay type: biochemical
T3 construct: Amino acid substitutions were introduced into the p66 HIV-1 RT subunit of a HIV-1 RT; His; made in house; host or cells: Escherichia coli M15
Description: (§4) An activity curve was performed for all of the enzymes (Figure S1), and a concentration was chosen in the linear dose-response range to perform the enzymatic-inhibition assays.
(§5) Amino acid substitutions were introduced into the p66 HIV-1 RT subunit of a HIV-1 RT using a QuikChange mutagenesis kit, following the manufacturer’s instructions (Agilent Technologies Inc., Santa Clara, CA).
as §2

K451A HIV-1 RT RNase H = molecular target: T4, K451A HIV-1 RT RNase H (Human immunodeficiency virus type 1 group M subtype B, UniProt P03366, K1050A); experiment: RNase H assay, point-mutant K451A RT; assay type: biochemical
T4 construct: Amino acid substitutions were introduced into the p66 HIV-1 RT subunit of a HIV-1 RT; His; made in house; host or cells: Escherichia coli M15
Description: as §4, §5, §2

N474A HIV-1 RT RNase H = molecular target: T5, N474A HIV-1 RT RNase H (Human immunodeficiency virus type 1 group M subtype B, UniProt P03366, N1073A); experiment: RNase H assay, point-mutant N474A RT; assay type: biochemical
T5 construct: Amino acid substitutions were introduced into the p66 HIV-1 RT subunit of a HIV-1 RT; His; made in house; host or cells: Escherichia coli M15
Description: as §4, §5, §2

Y501A HIV-1 RT RNase H = molecular target: T6, Y501A HIV-1 RT RNase H (Human immunodeficiency virus type 1 group M subtype B, UniProt P03366, Y1100A); experiment: RNase H assay, point-mutant Y501A RT; assay type: biochemical
T6 construct: Amino acid substitutions were introduced into the p66 HIV-1 RT subunit of a HIV-1 RT; His; made in house; host or cells: Escherichia coli M15
Description: as §4, §5, §2

Q475A HIV-1 RT RNase H = molecular target: T7, Q475A HIV-1 RT RNase H (Human immunodeficiency virus type 1 group M subtype B, UniProt P03366, Q1074A); experiment: RNase H assay, point-mutant Q475A RT; assay type: biochemical
T7 construct: Amino acid substitutions were introduced into the p66 HIV-1 RT subunit of a HIV-1 RT; His; made in house; host or cells: Escherichia coli M15
Description: as §4, §5, §2

R448A HIV-1 RT RNase H = molecular target: T8, R448A HIV-1 RT RNase H (Human immunodeficiency virus type 1 group M subtype B, UniProt P03366, R1047A); experiment: RNase H assay, point-mutant R448A RT; assay type: biochemical
T8 construct: Amino acid substitutions were introduced into the p66 HIV-1 RT subunit of a HIV-1 RT; His; made in house; host or cells: Escherichia coli M15
Description: as §4, §5, §2

K540A HIV-1 RT RNase H = molecular target: T9, K540A HIV-1 RT RNase H (Human immunodeficiency virus type 1 group M subtype B, UniProt P03366, K1139A); experiment: RNase H assay, point-mutant K540A RT; assay type: biochemical
T9 construct: Amino acid substitutions were introduced into the p66 HIV-1 RT subunit of a HIV-1 RT; His; made in house; host or cells: Escherichia coli M15
Description: as §4, §5, §2

IN = details: cited from earlier work
RNase H = details: cited from earlier work
[3] = anti-RH activity (IC50 ± SD), HIV-1 RT-associated RNase H activity, dose-response curves, no preincubation
[4] = Human immunodeficiency virus 1, HeLa-CD4-LTR-β-gal cells, 24 h post infection, read-out: antiviral activity EC50
[5] = HeLa-CD4-LTR-β-gal cells, CC50 (cytotoxic concentration 50%), 24 h
[6] = HeLa-CD4-LTR-β-gal cells, supplement CSV, read-out: CC50
[7] = wt (RH IC50, uM), supplement CSV, mutagenesis study
[8] = Human immunodeficiency virus 1, 24 h, read-out: antiviral activity EC50

Row | SMILES | IC50 [1, 3] [µM] | SI (selectivity index = CC50/EC50) (HIV-1 replication) | EC50 (HIV-1 replication; [4]) [µM] | IC50 (HIV-1 IN) [µM] | IC50 (HIV-1 RT-RDDP activity) [µM] | CC50 at 24 h [2, 5] [µM] | CC50 at 24 h [2, 6] [µM] | also measured
1 | O=C(/C=C/c1ccc2c(c1)c(=O)c(C(=O)O)cn2Cc1ccc(F)cc1)c1ccccc1 [4k, (E)-1-(4-Fluorobenzyl)-4-oxo-6-(3-oxo-3-phenylprop-1-en-1-yl)-1,4-dihydroquinoline-3 carboxylic Acid] | 5.9 ± 0.6 | 3.1 | 5.4 ± 3.1 | 3.38 ± 0.42 | > 100 | 17 ± 4 | – | –
2 | O=C(O)c1cn(Cc2ccc(F)cc2)c2ccc(OCc3ccccc3)cc2c1=O [4l, 6-(Benzyloxy)-1-(4-fluorobenzyl)-4-oxo-1,4-dihydroquinoline-3-carboxylic Acid] | 34 ± 0.1 | >8.6 | 11.7 ± 2.5 | 0.41 ± 0.03 | 38.5 ± 7.1 | > 100 | – | EC50 (HIV-1 replication; Human immunodeficiency virus 1, supplement CSV, read-out: EC50): 11.7 ± 2.15 µM
3 | O=C(O)c1cn(Cc2ccc(F)cc2)c2ccc(OCc3cccc(Cl)c3Cl)cc2c1=O [4m, 6-((2,3-Dichlorobenzyl)oxy)-1-(4-fluorobenzyl)-4-oxo-1,4-dihydroquinoline-3-carboxylic Acid] | 8.19 ± 0.05 | >15 | 13.3 ± 4.5 | > 100 | 5.6 ± 0.6 | > 200 | > 50 | –
4 | O=C(O)c1cn(Cc2ccc(F)cc2)c2ccc(OCc3ccc(Cl)c(Cl)c3)cc2c1=O [4n, 6-((3,4-Dichlorobenzyl)oxy)-1-(4-fluorobenzyl)-4-oxo-1,4-dihydroquinoline-3-carboxylic Acid] | 29.5 ± 0.5 | >12.4 | 16.1 ± 5.5 | 3.25 ± 0.85 | 2 ± 0.8 | > 200 | > 50 | IC50 ([1]; RH IC50 (uM), supplement CSV): 29.5 ± 0.55 µM
5 | O=C(O)c1cn(Cc2ccc(F)cc2)c2ccc(OCc3cccc4ccccc34)cc2c1=O [4o, 1-(4-Fluorobenzyl)-6-(naphthalen-1-ylmethoxy)-4-oxo-1,4-dihydroquinoline-3-carboxylic Acid] | 1.51 ± 0.21 | – | – | > 100 | 11.4 ± 2.6 | 51 ± 11 | – | IC50 (W535A HIV-1 RT RNase H): > 100 µM; IC50 [1, 7]: 5.2 ± 1.1 µM; IC50 (K451A HIV-1 RT RNase H): 11.8 ± 1.2 µM; EC50 (HIV-1 replication; [8]): 8.4 ± 0.7 µM; IC50 (N474A HIV-1 RT RNase H): 85.8 ± 1.6 µM; IC50 (Y501A HIV-1 RT RNase H): > 100 µM; IC50 (Q475A HIV-1 RT RNase H): > 100 µM; IC50 (R448A HIV-1 RT RNase H): 19.6 ± 1.24 µM; IC50 (K540A HIV-1 RT RNase H): 31.6 ± 1.2 µM
6 | O=C(O)c1cn(Cc2ccc(F)cc2)c2ccc(OCc3ccc4c(c3)OCO4)cc2c1=O [4q, 6-(Benzo[d][1,3]dioxol-5-ylmethoxy)-1-(4-fluorobenzyl)-4-oxo-1,4-dihydroquinoline-3-carboxylic Acid] | 13.5 | >17.7 | 11.3 ± 3.5 | > 100 | 5.1 ± 1.8 | > 200 | > 50 | –
7 | O=C(O)c1cn(Cc2ccc(F)cc2)c2ccc(OCc3ccc(-c4ccccc4)cc3)cc2c1=O [4s, 6-([1,1′-Biphenyl]-4-ylmethoxy)-1-(4-fluorobenzyl)-4-oxo-1,4-dihydroquinoline-3-carboxylic Acid] | 7.47 ± 1.55 | >40 | 2.5 ± 1.03 | > 250 | 11.6 ± 5.5 | > 100 | > 16 | –
8 | O=C(O)c1cn(Cc2ccc(F)cc2)c2ccc(OCc3ccc(OCc4ccccc4)cc3)cc2c1=O [4t, 6-((4-(Benzyloxy)benzyl)oxy)-1-(4-fluorobenzyl)-4-oxo-1,4-dihydroquinoline-3-carboxylic Acid] | 7.48 ± 0.28 | >57.8 | – | > 100 | 2.2 ± 0.1 | – | – | Fold increase in IC50 compared to wt RT, W535A (W535A HIV-1 RT RNase H): > 52.4 fold; IC50 (W535A HIV-1 RT RNase H): > 100 µM; W535A (Fold) (W535A HIV-1 RT RNase H; supplement CSV, vs wt): >52.4; IC50 [1, 7]: 1.9 ± 0.4 µM; IC50 (K451A HIV-1 RT RNase H): 2.9 ± 1.3 µM; EC50 (HIV-1 replication; [8]): 1.73 ± 0.47 µM; IC50 (N474A HIV-1 RT RNase H): 1.16 ± 1.41 µM; CC50 at 24 h ([2]; HeLa-CD4-LTR-β-gal reporter cells, CC50 (cytotoxic concentration 50%), HeLa-CD4-LTR-β-gal cells, 24 h): > 100 µM; CC50 at 24 h ([2]; HeLa-CD4-LTR-β-gal reporter cells, supplement CSV, read-out: CC50): > 16 µM; IC50 (Y501A HIV-1 RT RNase H): > 100 µM; IC50 (Q475A HIV-1 RT RNase H): 15.6 ± 1.6 µM; IC50 (R448A HIV-1 RT RNase H): 2.2 ± 1.3 µM; IC50 (K540A HIV-1 RT RNase H): 2 ± 1.2 µM
9 | CCOC(=O)c1cn(Cc2ccc(F)cc2)c2ccc(OCc3cccc(Cl)c3Cl)cc2c1=O [5m, Ethyl 6-((2,3-Dichlorobenzyl)oxy)-1-(4-fluorobenzyl)-4-oxo-1,4-dihydroquinoline-3-carboxylate] | 24 | 1.2 | 17.8 ± 2.3 | 0.05 ± 0.01 | 1.88 ± 0.04 | 21.6 ± 2.8 | 23.9 ± 4.5 | –
10 | CCOC(=O)c1cn(Cc2ccc(F)cc2)c2ccc(OCc3ccc(Cl)c(Cl)c3)cc2c1=O [5n, Ethyl 6-((3,4-Dichlorobenzyl)oxy)-1-(4-fluorobenzyl)-4-oxo-1,4-dihydroquinoline-3-carboxylate] | 37.2 ± 7.6 | 1.4 | 14.6 ± 3.1 | 9.45 ± 0.55 | 24.1 ± 8.6 | 20.6 ± 4.4 | – | IC50 ([1]; RH IC50 (uM), supplement CSV): 37.2 ± 7.58 µM
11 | CCOC(=O)/C(O)=C/C(=O)/C=C/c1cccn1Cc1ccc(F)cc1 [compound 1] | – | – | – | – | – | – | – | IC50 (IN; supplement CSV, earlier compounds 1 and 2, ref 29−33, read-out: IN ST IC50): 90 µM
12 | O=C(O)/C(O)=C/C(=O)c1cn(Cc2ccc(F)cc2)c2cc(N3CCCC3)ccc2c1=O [compound 2] | – | – | – | – | – | – | – | IC50 (RNase H): 5.1 µM; IC50 (IN; read-out: IN inhibitory activity IC50): 0.028 µM
